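Step 1: Grow cells in 96-well plates. Step 2: Expose to compound for 48 hours at 5 concentrations. Step 3: Interpolate endpoints linearly; if unreached, use highest concentration. GI50 marks 50% less growth.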 The source made the active and inactive calls. No stated cut-off is given here; in the data, active = GI50 up to about 1.1 µM and inactive = higher.
Legend:
Assay in all cases: NCI anticancer screen, dose series, 48 h
[1] = tested on: HOP-92
[2] = tested on: NCI-H522
[3] = tested on: HCC 2998
[4] = tested on: LOX IMVI
[5] = tested on: MOLT-4
[6] = tested on: SR
[7] = tested on: IGROV-1
[8] = tested on: LXFL 529
[9] = tested on: MCF7
[10] = tested on: SN12C
[11] = tested on: K562
[12] = tested on: KM12
[13] = tested on: EKVX
[14] = tested on: TK-10
[15] = tested on: Hs-578T
[16] = tested on: SK-MEL-5
[17] = tested on: KM-20L2
[18] = tested on: U-251
[19] = tested on: UO-31
[20] = tested on: UACC-62
[21] = tested on: NCI-H23
[22] = tested on: RPMI-8226
[23] = tested on: HCT-15
[24] = tested on: RXF 393
[25] = tested on: SNB-78
[26] = tested on: T47D
[27] = tested on: BT-549
[28] = tested on: DMS-114
[29] = tested on: UACC-257
[30] = tested on: HOP-62
[31] = tested on: SF-295
[32] = tested on: OVCAR-4
[33] = tested on: Malme-3M
[34] = tested on: PC-3
[35] = tested on: OVCAR-5
[36] = tested on: SNB-19
[37] = tested on: SW-620
[38] = tested on: SNB-75
[39] = tested on: NCI-H226
[40] = tested on: OVCAR-3
[41] = tested on: MDA-MB-231
[42] = tested on: A549
[43] = tested on: HCT-116
[44] = tested on: CAKI-1
[45] = tested on: HL-60
[46] = tested on: OVCAR-8
[47] = tested on: HOP-18
[48] = tested on: SK-OV-3
[49] = tested on: M14
[50] = tested on: DU-145
[51] = tested on: SK-MEL-2
[52] = tested on: DMS-273
[53] = tested on: ACHN
[54] = tested on: SF-539
[55] = tested on: 786-0
[56] = tested on: A498
[57] = tested on: COLO 205
[58] = tested on: NCI/ADR-RES
[59] = tested on: CCRF-CEM
[60] = tested on: DLD-1
[61] = tested on: MDA-N
[62] = tested on: SK-MEL-28
[63] = tested on: MDA-MB-435
[64] = tested on: XF498
[65] = tested on: SF-268
[66] = tested on: NCI-H460
[67] = tested on: HT-29
[68] = tested on: M19-MEL

Measured: GI50

COc1ccc(Br)c2c1CC(C(=O)O)CC2 (centres undefined)
> 100 µM: [23]
inactive: [1] > 78.5 µM | [2] > 100 µM | [3] > 100 µM | [4] > 100 µM | [5] > 100 µM | [6] > 54 µM | [7] > 100 µM | [8] > 100 µM | [9] > 100 µM | [10] > 100 µM | [11] > 100 µM | [12] > 100 µM | [13] > 100 µM | [14] > 100 µM | [15] > 100 µM | [16] > 100 µM | [17] > 100 µM | [18] > 100 µM | [19] > 100 µM | [20] > 100 µM | [21] > 100 µM | [22] > 100 µM | [24] > 100 µM | [25] > 100 µM | [26] > 100 µM | [27] > 100 µM | [28] > 100 µM | [29] > 100 µM | [30] > 100 µM | [31] > 100 µM | [32] > 100 µM | [33] > 100 µM | [34] > 100 µM | [35] > 100 µM | [36] > 100 µM | [37] > 100 µM | [38] > 100 µM | [39] > 100 µM | [40] > 100 µM | [41] > 100 µM | [42] > 100 µM | [43] > 100 µM | [44] > 100 µM | [45] > 100 µM | [46] > 100 µM | [47] > 100 µM | [48] > 100 µM | [49] > 100 µM | [50] > 100 µM | [51] > 100 µM | [52] > 100 µM | [53] > 100 µM | [54] > 100 µM | [55] > 100 µM | [56] > 100 µM | [57] > 100 µM | [58] > 100 µM | [59] > 100 µM | [60] > 100 µM | [61] > 100 µM | [62] > 100 µM | [63] > 100 µM | [64] > 100 µM | [65] > 100 µM | [66] > 100 µM | [67] > 100 µM

CCCCCCCCCCCCCCCCCCOCC(COP(=O)([O-])OCC[N+](C)(C)C)OC (centres undefined) [EDELFOSINE]
3.36 µM: [23]
inactive: [1] 8.75 µM | [2] 11.4 µM | [3] 2.38 µM | [4] 15.4 µM | [5] 11.5 µM | [6] 7.87 µM | [68] 4.58 µM | [7] 6.67 µM | [9] 27.5 µM | [10] 12.1 µM | [11] 44.3 µM | [12] 5.09 µM | [13] 44.3 µM | [14] 19 µM | [15] > 100 µM | [16] 41.8 µM | [17] 2.9 µM | [18] 13.6 µM | [19] 27.4 µM | [20] 20.5 µM | [21] 41.6 µM | [22] 20.9 µM | [24] 13.9 µM | [25] 19.3 µM | [26] > 100 µM | [27] 48.8 µM | [28] 13.4 µM | [29] 24 µM | [30] 19.2 µM | [31] 9.66 µM | [32] 26.6 µM | [33] 29.6 µM | [34] 7.19 µM | [35] 15.9 µM | [36] 20.7 µM | [37] 19.1 µM | [38] 8.75 µM | [39] 26.4 µM | [40] 34.3 µM | [41] 59.7 µM | [42] 21.4 µM | [43] 14.7 µM | [44] 13.1 µM | [45] 3.94 µM | [46] 32.1 µM | [47] 13.3 µM | [48] 18.2 µM | [49] 32.9 µM | [50] > 100 µM | [51] 31.3 µM | [52] 3.03 µM | [53] > 72.8 µM | [54] > 58.5 µM | [55] 22.3 µM | [56] 19.8 µM | [57] 2.65 µM | [58] 42.3 µM | [59] 7.62 µM | [60] 5.09 µM | [61] > 69.3 µM | [62] 41.2 µM | [63] 98.4 µM | [64] 11.2 µM | [65] 17.2 µM | [66] 7.05 µM | [67] 7.28 µM

CC(C)/C=C1\CCC(CN2CCOCC2)C1=O (centres undefined)
active: [22] 0.964 µM
5.85 µM: [23]
inactive: [1] 18.4 µM | [2] 2.01 µM | [3] 20.2 µM | [4] 24.4 µM | [5] 2.99 µM | [6] 3.75 µM | [68] 23.4 µM | [7] 14.4 µM | [8] 2.74 µM | [10] 19.3 µM | [11] 2.56 µM | [12] 10.5 µM | [13] 19.1 µM | [14] 12.9 µM | [16] 18.6 µM | [17] 20.1 µM | [18] > 42.4 µM | [19] 20.7 µM | [20] 18 µM | [21] 17.4 µM | [24] 4.94 µM | [25] 12.5 µM | [29] 7.78 µM | [30] > 100 µM | [31] 45 µM | [32] 20.8 µM | [33] 15.7 µM | [35] 22.5 µM | [36] > 100 µM | [37] 2.7 µM | [39] 30.5 µM | [40] 18.2 µM | [42] 26.3 µM | [43] 5.35 µM | [44] 4.24 µM | [45] 2.13 µM | [46] 11.1 µM | [47] 17.7 µM | [48] > 100 µM | [49] 11.9 µM | [51] 17.7 µM | [53] 18 µM | [54] 15.5 µM | [55] 3.66 µM | [56] > 35.9 µM | [57] 6.85 µM | [59] 2.65 µM | [60] 2.69 µM | [62] 17.7 µM | [64] 18.3 µM | [65] 22.9 µM | [66] 28.1 µM | [67] 6.7 µM

Reference: ChEMBL document CHEMBL1201862, “PubChem BioAssay data set” (2004)
